# Results taken from PMC3954431 (Molecular cancer therapeutics, 2013).
# Columns and labels:
# [1] = tested on: UN1 mAb; assay: Surface plasmon resonance, UN1 mAb immobilized on CM5 chip; type: binding, murine; conditions: Biacore 3000, UN1 mAb immobilized on CM5 chip, peptide 0.1-2.5 mM
# [2] = tested on: W6/32 mAb (anti-human HLA class I antigen) binding; assay: Competition of W6/32 mAb binding; type: cell-based; conditions: Fig. S2B
# [3] = tested on: UN1 mAb binding to UN1-positive breast and gastric cancer tissues; assay: Competition of UN1 mAb binding to cancer tissues; parameters: species or system human; conditions: Fig. S3
# [4] = ELISA reactivity of immunized mice sera against G23 peptide; type: in vivo; conditions: sera of phage-immunized Balb/c mice
# [5] = Balb/c mice
# [6] = tested on: wild type phage; assay: ELISA reactivity of immunized mice sera against wild type phage; type: in vivo; conditions: sera of phage-immunized Balb/c mice
# [7] = ELISA reactivity of immunized mice sera against scrambled peptide; type: in vivo; conditions: sera of phage-immunized Balb/c mice
# [8] = sera, days 7-10 from the 6th boost, 5 animals/group, colorimetric assay, mean ± SEM
competition of W6/32 mAb binding [2],Sequence,SPR signal [1],competition of UN1 mAb binding to breast and gastric cancer tissues [3],serum reactivity against G23 peptide [4],"health of immunized mice ([5]; 5 animals/group, i.p. phage immunization)","serum IL1-β, GSH and LDH levels versus normal ([5]; phage-immunized)","GSH [5, 8]","LDH [5, 8]","IL-1β ([5]; serum, days 7-10 from the 6th boost, 5 animals/group, ELISA, mean ± SEM)",antibody response against the wild type phage [6],serum reactivity against scrambled peptide [7]
–,TCLAPDVPEPLSHCWAGETFKLA [scrambled peptide],failed to give the SPR signal,–,–,–,–,–,–,–,–,–
did not compete the binding of W6/32 mAb,SFAATPHTCKLLDECVPLWPAEG [G23],–,competed the binding of UN1 mAb to UN1-positive breast and gastric cancer tissues,–,–,–,–,–,–,–,–
–,TPHTCKLLDECVPLW [phagotope 2/165],–,competed the binding of UN1 mAb to UN1-positive breast and gastric cancer tissues,specific immune response against the UN1 mimotope G23 peptide,appeared healthy and did not show any ill-effect,in the range of normality,10.1 ± 0.9 µM,52.9 ± 15.4 IU/L,58.2 ± 0.3 pg/mL,strong and comparable antibody response against the wild type phage,unreactive against the scrambled peptide
